# From patent US20090088345A1, “NECESSARY AND SUFFICIENT REAGENT SETS FOR CHEMOGENOMIC ANALYSIS” (priority 2004, published 2009)
# Test system: PPARα signature
# Experiment: Scalar product (signature score) of compound treatments against PPARα gene signatures from rat liver microarray expression profiles
# Type: in vivo
# Settings: previous observation, original PPARα signature
# Procedure: “Scalar product” (or “Signature score”) as used herein refers to the sum of impacts for all genes in a signature less the bias for that signature.
# The detailed description of the construction of this chemogenomic dataset is described in Examples 1 and 2 of Published U.S. Pat. Appl. No. 2005/0060102 A1, published Mar. 17, 2005, which is hereby incorporated by reference for all purposes. Briefly, in vivo short-term repeat dose rat studies were conducted on over 580 test compounds, including marketed and withdrawn drugs, environmental and industrial toxicants, and standard biochemical reagents. Rats (three per group) were dosed daily at either a low or high dose. The low dose was an efficacious dose estimated from the literature and the high dose was an empirically-determined maximum tolerated dose, defined as the dose that causes a 50% decrease in body weight gain relative to controls during the course of the 5 day range finding study. Animals were necropsied on days 0.25, 1, 3, and 5 or 7. […]
# Log10-ratios are computed for each gene as the difference of the averaged logs of the experimental signals from (usually) three drug-treated animals and the averaged logs of the control signals from (usually) 20 mock vehicle-treated animals. To assign a significance level to each gene expression change, the standard error for the measured change between the experiments and controls is computed. […]
smiles,measurement,value
CC(C)(Oc1ccc(Cl)cc1)C(=O)O [clofibric acid],scalar product against the PPARα signature,weakest of the known PPARα agonists
